Data reported in PMC5515969, “Effects of 31 FDA approved small-molecule kinase inhibitors on isolated rat liver mitochondria” (Archives of Toxicology, 2016).
Where two headings read alike, the source gives them in different places.

Experiments:
RCC V = RCC V activity in submitochondrial particles; type: biochemical, rat; settings: relative to DMSO treated samples; as to RCC V at 5XCmax: key: 0 indicates that the drug had no effects (negative)
Outline: (§1)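 Abs 340 nm (I/V) or 600 nm (II), 1-min reads × 6 min; 550 nm (III, IV), 10-s reads × 2 min. RCC I = rotenone-free minus rotenone rate. DMSO control = 1.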

[1] = test system: isolated rat liver mitochondria; assay: Mitochondrial inner membrane potential (MMP), Rhodamine 123; type: biochemical; settings: difference in signal between KI and DMSO treated samples at the end of experiments
Description: Fig. 3 KI effects on mitochondrial inner membrane potential (MMP). […] In a, c, data are means and standard derivations from three separate experiments. *p < 0.05 as compared to DMSO-treated samples at the end of experiments. In b, data are means of two independent experiments

[2] = cited from earlier work; for DILI potential (based on labeling): 1 = DILI positive, 0 = negative, ref product labeling
[3] = test system: isolated rat liver mitochondria; assay: Mitochondrial swelling (absorbance at 535 nm); type: biochemical; settings: difference in signal between KI and DMSO treated samples at the end of experiments; as to Swelling 5XCmax: key: 0 indicates that the drug had no effects (negative)
RCC IV = RCC IV activity in submitochondrial particles; type: biochemical, rat; set-up: key to RCC IV at 50XCmax / RCC IV at 100XCmax: activity relative to DMSO-treated controls (control set as 1 = 100%); settings: 50XCmax; relative to DMSO treated samples; in %
Outline: as §1

RCC I = RCC I activity in submitochondrial particles; type: biochemical, rat; set-up: key to RCC I at 10XCmax / RCC I at 100XCmax / RCC I at 50XCmax / RCC I at 30XCmax / RCC I at 20XCmax: activity relative to DMSO-treated controls (control set as 1 = 100%); settings: 10XCmax; relative to DMSO treated samples
Outline: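 First, submitochondrial particles (1 mg/ml) are incubated with inhibitor for 15 min. Next, complex activities are followed spectrophotometrically, with RCC I taken as the difference between buffers lacking and containing rotenone. Finally, activities are expressed relative to DMSO controls set at 1.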

[4] = test system: isolated rat liver mitochondria; assay: Mitochondrial oxygen consumption (glutamate/malate or succinate driven, state 4 and state 3); type: biochemical; settings: DMSO treated samples set as 1; as to State 3 respiration driven by succinate at 10XCmax: key: 0 indicates that the drug had no effects (negative); as to State 3 respiration driven by succinate at 1XCmax: key: 0 indicates that the drug had no effects (negative)
Outline: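 Oxygen uptake on glutamate/malate or on succinate defined state 4; ADP added 3 min later gave state 3. Mitochondria isolated from rat liver by differential centrifugation, adjusted to 1 mg/ml and pretreated 5 min with inhibitor (0.1% DMSO final). Values relative to DMSO control, set to 1.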

[5] = therapeutic maximal blood concentration, ref product labeling, cited from earlier work
[6] = test system: isolated rat liver mitochondria; settings: positive control alamethicin treated samples
RCC II = molecular target: T1, RCC II (Rattus norvegicus, UniProt P21913+Q641Z9+Q6PCT8+Q920L2); assay: RCC II activity in submitochondrial particles; type: biochemical; set-up: key: activity relative to DMSO-treated controls (control set as 1 = 100%); settings: relative to DMSO treated samples
T1 construct: Submitochondrial particles were prepared by subjecting the intact mitochondria to three successive freeze–thaw cycles; from tissue; host or cells: rat liver mitochondria, used as submitochondrial particles
T1 sequence (Q920L2 35-656): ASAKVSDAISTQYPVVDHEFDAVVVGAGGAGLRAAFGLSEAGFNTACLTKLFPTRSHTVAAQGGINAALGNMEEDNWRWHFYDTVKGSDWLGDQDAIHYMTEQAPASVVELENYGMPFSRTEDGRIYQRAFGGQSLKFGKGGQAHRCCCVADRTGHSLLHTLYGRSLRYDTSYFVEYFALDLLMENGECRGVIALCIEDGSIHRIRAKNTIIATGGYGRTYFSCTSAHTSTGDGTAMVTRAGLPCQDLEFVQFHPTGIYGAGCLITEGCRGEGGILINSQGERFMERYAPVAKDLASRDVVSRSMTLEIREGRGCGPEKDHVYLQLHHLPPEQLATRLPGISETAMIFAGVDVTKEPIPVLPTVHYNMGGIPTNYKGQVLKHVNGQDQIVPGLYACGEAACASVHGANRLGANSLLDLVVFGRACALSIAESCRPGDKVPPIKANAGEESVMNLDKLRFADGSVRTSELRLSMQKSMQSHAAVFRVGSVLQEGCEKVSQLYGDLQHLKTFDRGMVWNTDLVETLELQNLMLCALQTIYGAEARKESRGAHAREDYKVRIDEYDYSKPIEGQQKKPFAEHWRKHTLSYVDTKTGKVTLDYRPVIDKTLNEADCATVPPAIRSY
T1 sequence (P21913 31-282): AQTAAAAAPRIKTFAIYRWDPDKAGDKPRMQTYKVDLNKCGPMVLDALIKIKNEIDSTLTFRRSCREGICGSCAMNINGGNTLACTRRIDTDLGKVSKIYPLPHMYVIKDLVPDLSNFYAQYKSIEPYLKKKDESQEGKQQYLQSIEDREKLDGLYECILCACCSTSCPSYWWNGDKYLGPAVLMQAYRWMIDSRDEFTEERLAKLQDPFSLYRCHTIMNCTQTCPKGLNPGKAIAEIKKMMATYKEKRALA
T1 sequence (Q641Z9 1-169): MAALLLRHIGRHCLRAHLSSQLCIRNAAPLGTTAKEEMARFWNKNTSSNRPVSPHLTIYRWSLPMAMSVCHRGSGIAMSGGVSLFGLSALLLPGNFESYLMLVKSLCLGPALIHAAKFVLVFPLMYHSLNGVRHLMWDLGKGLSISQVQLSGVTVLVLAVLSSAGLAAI
T1 sequence (Q6PCT8 57-159): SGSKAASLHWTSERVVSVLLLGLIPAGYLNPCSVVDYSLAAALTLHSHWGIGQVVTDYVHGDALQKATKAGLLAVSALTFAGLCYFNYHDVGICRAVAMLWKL
Outline: as §1

In the case of `N#CC[C@H](C1CCCC1)n1cc(-c2ncnc3[nH]ccc23)cn1` [ruxolitinib phosphate], the “RCC V at 5XCmax” value (RCC V) was 0, the “RCC V at 50XCmax” value (RCC V) was 0 and the “MMP measured by Rhodamine 123 at 1XCmax” value [1] was 0. The “MMP measured by Rhodamine 123 at 2.5XCmax” value [1] was 0, the “MMP measured by Rhodamine 123 at 5XCmax” value [1] was 0 and the “MMP measured by Rhodamine 123 at 10XCmax” value [1] was 0. The “MMP measured by Rhodamine 123 at 20XCmax” value [1] was 0, the “MMP measured by Rhodamine 123 at 30XCmax” value [1] was 0 and the “MMP measured by Rhodamine 123 at 50XCmax” value [1] was 0. For the same molecule, the “MMP measured by Rhodamine 123 at 100XCmax” value [1] was 0, the “DILI potential (based on labeling)” value [2] was 0 and the “Swelling 1XCmax” value [3] was 0. The “Swelling 2.5XCmax” value [3] was 0, the “Swelling 5XCmax” value [3] was 0 and the “Swelling 10XCmax” value [3] was 0. For the same molecule, the “Swelling 20XCmax” value [3] was 0, the “Swelling 30XCmax” value [3] was 0 and the “Swelling 50XCmax” value [3] was 0. For the same molecule, the “Swelling 100XCmax” value [3] was 0, the “RCC IV at 50XCmax” value (RCC IV) was 0 and the “RCC I at 10XCmax” value (RCC I) was 0. For the same molecule, the “State 3 respiration driven by glutamate/malate at 1XCmax” value [4] was 0, the “State 3 respiration driven by succinate at 1XCmax” value [4] was 0 and the “State 4 respiration driven by glutamate/malate at 1XCmax” value [4] was 0. The “State 4 respiration driven by succinate at 1XCmax” value [4] was 0, the “State 3 respiration driven by glutamate/malate at 2.5XCmax” value [4] was 0 and the “State 3 respiration driven by succinate at 2.5XCmax” value [4] was 0. For the same molecule, the “State 4 respiration driven by glutamate/malate at 2.5XCmax” value [4] was 0, the “State 4 respiration driven by succinate at 2.5XCmax” value [4] was 0 and the “State 3 respiration driven by glutamate/malate at 5XCmax” value [4] was 0. The “State 3 respiration driven by succinate at 5XCmax” value [4] was 0, the “State 4 respiration driven by glutamate/malate at 5XCmax” value [4] was 0 and the “State 4 respiration driven by succinate at 5XCmax” value [4] was 0. The “State 3 respiration driven by glutamate/malate at 10XCmax” value [4] was 0, the “State 3 respiration driven by succinate at 10XCmax” value [4] was 0 and the “State 4 respiration driven by glutamate/malate at 10XCmax” value [4] was 0. For the same molecule, the “State 4 respiration driven by succinate at 10XCmax” value [4] was 0, the “State 3 respiration driven by glutamate/malate at 20XCmax” value [4] was 0.62±0.05 and the “State 3 respiration driven by succinate at 20XCmax” value [4] was 0. The “State 4 respiration driven by glutamate/malate at 20XCmax” value [4] was 0, the “State 4 respiration driven by succinate at 20XCmax” value [4] was 0 and the “State 3 respiration driven by glutamate/malate at 30XCmax” value [4] was 0.54±0.02. For the same molecule, the “State 3 respiration driven by succinate at 30XCmax” value [4] was 0, the “State 4 respiration driven by glutamate/malate at 30XCmax” value [4] was 0 and the “State 4 respiration driven by succinate at 30XCmax” value [4] was 0. The “State 3 respiration driven by glutamate/malate at 50XCmax” value [4] was 0.49±0.06, the “State 3 respiration driven by succinate at 50XCmax” value [4] was 0 and the “State 4 respiration driven by glutamate/malate at 50XCmax” value [4] was 0. For the same molecule, the “State 4 respiration driven by succinate at 50XCmax” value [4] was 0, the “State 3 respiration driven by glutamate/malate at 100XCmax” value [4] was 0.28±0.06 and the “State 3 respiration driven by succinate at 100XCmax” value [4] was 0. For the same molecule, the “State 4 respiration driven by glutamate/malate at 100XCmax” value [4] was 0.71±0.08, the “State 4 respiration driven by succinate at 100XCmax” value [4] was 0 and the Cmax ([5]; read-out: Cmax at µM) was 1.2 µM. For the same molecule, the “Cmax” value [5] was 368 ng/mL, the “Cytochrome c release 1XCmax” value [6] was 0 and the “Cytochrome c release 2.5XCmax” value [6] was 0. For the same molecule, the “Cytochrome c release 5XCmax” value [6] was 0, the “Cytochrome c release 10XCmax” value [6] was 0 and the “Cytochrome c release 20XCmax” value [6] was 0. For the same molecule, the “Cytochrome c release 30XCmax” value [6] was 0, the “Cytochrome c release 50XCmax” value [6] was 13.84±2.24 percentage of the positive control group and the “Cytochrome c release 100XCmax” value [6] was 8.09±1.58 percentage of the positive control group. The “RCC II at 1.0XCmax” value (RCC II) was 0, the “RCC II at 2.5XCmax” value (RCC II) was 0 and the “RCC II at 5XCmax” value (RCC II) was 0. The “RCC II at 10XCmax” value (RCC II) was 0, the “RCC II at 20XCmax” value (RCC II) was 0 and the “RCC II at 30XCmax” value (RCC II) was 0. The “RCC II at 50XCmax” value (RCC II) was 0 and the “RCC II at 100XCmax” value (RCC II) was 0.

In the case of `CCN(CC)CCNC(=O)c1c(C)[nH]c(/C=C2\C(=O)Nc3ccc(F)cc32)c1C` [sunitinib malate], the “RCC V at 5XCmax” value (RCC V) was 0, the “RCC V at 50XCmax” value (RCC V) was 0 and the “MMP measured by Rhodamine 123 at 1XCmax” value [1] was 0. The “MMP measured by Rhodamine 123 at 2.5XCmax” value [1] was 0, the “MMP measured by Rhodamine 123 at 5XCmax” value [1] was 0 and the “MMP measured by Rhodamine 123 at 10XCmax” value [1] was 0. For the same molecule, the “MMP measured by Rhodamine 123 at 20XCmax” value [1] was 0, the “MMP measured by Rhodamine 123 at 30XCmax” value [1] was 0 and the “MMP measured by Rhodamine 123 at 50XCmax” value [1] was 0. For the same molecule, the “MMP measured by Rhodamine 123 at 100XCmax” value [1] was 0, the “DILI potential (based on labeling)” value [2] was 1 and the “Labeling for DILI” value ([2]; in vivo) was “BBW: fatal DILI”. The “Swelling 1XCmax” value [3] was 0, the “Swelling 2.5XCmax” value [3] was 0 and the “Swelling 5XCmax” value [3] was 0. For the same molecule, the “Swelling 10XCmax” value [3] was 0, the “Swelling 20XCmax” value [3] was 0 and the “Swelling 30XCmax” value [3] was 0. For the same molecule, the “Swelling 50XCmax” value [3] was 0, the “Swelling 100XCmax” value [3] was 0 and the “RCC IV at 50XCmax” value (RCC IV) was 0. The “RCC I at 10XCmax” value (RCC I) was 0, the “State 3 respiration driven by glutamate/malate at 1XCmax” value [4] was 0 and the “State 3 respiration driven by succinate at 1XCmax” value [4] was 0. For the same molecule, the “State 4 respiration driven by glutamate/malate at 1XCmax” value [4] was 0, the “State 4 respiration driven by succinate at 1XCmax” value [4] was 0 and the “State 3 respiration driven by glutamate/malate at 2.5XCmax” value [4] was 0. For the same molecule, the “State 3 respiration driven by succinate at 2.5XCmax” value [4] was 0, the “State 4 respiration driven by glutamate/malate at 2.5XCmax” value [4] was 0 and the “State 4 respiration driven by succinate at 2.5XCmax” value [4] was 0. For the same molecule, the “State 3 respiration driven by glutamate/malate at 5XCmax” value [4] was 0, the “State 3 respiration driven by succinate at 5XCmax” value [4] was 0 and the “State 4 respiration driven by glutamate/malate at 5XCmax” value [4] was 0. The “State 4 respiration driven by succinate at 5XCmax” value [4] was 0, the “State 3 respiration driven by glutamate/malate at 10XCmax” value [4] was 0 and the “State 3 respiration driven by succinate at 10XCmax” value [4] was 0. For the same molecule, the “State 4 respiration driven by glutamate/malate at 10XCmax” value [4] was 0, the “State 4 respiration driven by succinate at 10XCmax” value [4] was 0 and the “State 3 respiration driven by glutamate/malate at 20XCmax” value [4] was 0. The “State 3 respiration driven by succinate at 20XCmax” value [4] was 0, the “State 4 respiration driven by glutamate/malate at 20XCmax” value [4] was 0 and the “State 4 respiration driven by succinate at 20XCmax” value [4] was 0. For the same molecule, the “State 3 respiration driven by glutamate/malate at 30XCmax” value [4] was 0, the “State 3 respiration driven by succinate at 30XCmax” value [4] was 0 and the “State 4 respiration driven by glutamate/malate at 30XCmax” value [4] was 0. For the same molecule, the “State 4 respiration driven by succinate at 30XCmax” value [4] was 0, the “State 3 respiration driven by glutamate/malate at 50XCmax” value [4] was 0 and the “State 3 respiration driven by succinate at 50XCmax” value [4] was 0. For the same molecule, the “State 4 respiration driven by glutamate/malate at 50XCmax” value [4] was 0, the “State 4 respiration driven by succinate at 50XCmax” value [4] was 0 and the “State 3 respiration driven by glutamate/malate at 100XCmax” value [4] was 0. For the same molecule, the “State 3 respiration driven by succinate at 100XCmax” value [4] was 0, the “State 4 respiration driven by glutamate/malate at 100XCmax” value [4] was 0 and the “State 4 respiration driven by succinate at 100XCmax” value [4] was 0. For the same molecule, the Cmax ([5]; read-out: Cmax at µM) was 0.12 µM, the “Cmax” value [5] was 61.9 ng/mL and the “Cytochrome c release 1XCmax” value [6] was 0. The “Cytochrome c release 2.5XCmax” value [6] was 0, the “Cytochrome c release 5XCmax” value [6] was 0 and the “Cytochrome c release 10XCmax” value [6] was 0. The “Cytochrome c release 20XCmax” value [6] was 0, the “Cytochrome c release 30XCmax” value [6] was 0 and the “Cytochrome c release 50XCmax” value [6] was 0. For the same molecule, the “Cytochrome c release 100XCmax” value [6] was 0, the “RCC II at 1.0XCmax” value (RCC II) was 0 and the “RCC II at 2.5XCmax” value (RCC II) was 0. The “RCC II at 5XCmax” value (RCC II) was 0, the “RCC II at 10XCmax” value (RCC II) was 0 and the “RCC II at 20XCmax” value (RCC II) was 0. For the same molecule, the “RCC II at 30XCmax” value (RCC II) was 0, the “RCC II at 50XCmax” value (RCC II) was 0 and the “RCC II at 100XCmax” value (RCC II) was 0.
